Reference: patent publication US20260091082A1, “CYCLIC PEPTIDE DERIVATIVE COMPOSITION FOR TREATING OR PREVENTING EYE DISEASE” (DKS Co. Ltd., priority 2022, published 2026)
Where “and” joins values, the source holds several entries; their conditions need not be identical. Identical values can stand only once.

System: anterior chamber aqueous humor pressure load rat model
Assay: Retinal thickness (IPL, INL, ONL) in retinal damage model induced by anterior chamber aqueous humor pressure load
Type: in vivo, Rat; Slc: SD
Conditions: for Thickness of INL (μm) / Thickness of IPL (μm) / Thickness of ONL (μm): 14 days after model creation, mean ± S.E., 10 animals
Method: • Name: Compound 9 • Source: Synthesized in the above Examples • Used amount: 0.4 mL (50 mg/mL solution) • Storage conditions: Freezing, light shielding
Method for preparing test substance (1 mg/mL): A high concentration solution prepared at 50 mg/mL was diluted 50 times with a medium to prepare a 1 mg/mL administration solution.
• Name: MK-801 • Distributor: SIGMA-ALDRICH • Use amount: 0.0501 g • Storage condition: refrigerated (2° C. to 8° C.)
Method for preparing positive control substance (10 mg/mL): 0.0501 g was weighed out and made up to a total volume of 5 mL with a control substance (physiological saline).
• Species and strains: Rat; Slc: SD • Number of animals on arrival and sex: 50 males • Age in weeks at arrival: 6 weeks old • Body weight range at arrival: 147.2 to 170.0 g • Source: Japan SLC, Inc.
Grouping was performed two days before the first creation of the retinal damage model induced by an anterior chamber aqueous humor pressure load. Using the daily body weight as an index, stratified random allocation was performed using SAS (Ver. 9.3, SAS Institute Japan Ltd.) and EXSUS (Ver. 8.0, CAC Croit Corporation) so that an average value of the body weights of each group was approximately uniform.
• Administration route: Eyedrop administration, intravenous administration • Administration method (eyedrop): Eyedrop administration was performed on a treated eye (right eye) of a rat using a micropipette 4 times a day (at intervals of 1.5 hours or more). • Administration method (intravenous): The amount of administration solution, calculated from the body weight on the day of administration, was administered from the tail vein using a syringe and an injection needle about 30 minutes before ischemic load. • Time of administration: Administration was performed according to the following schedule.
1. 10 mg/kg xylazine hydrochloride was intramuscularly administered on the model creation day (day 0). A rat was placed in an anesthesia box and subjected to general anesthesia with isoflurane (5%, oxygen:nitrous oxide=1:3). When anesthesia was effective, the rat was taken out of the anesthesia box, an inhalation anesthetic mask was worn, and anesthesia was maintained with isoflurane (1% to 5%, oxygen nitrous oxide=1:3).
2. The body temperature was maintained at 37° C. with a warming mat, and a mydrin P ophthalmic solution was instilled in the right eye (treated eye) of the rat to dilate the pupil, then the cravit ophthalmic solution 1.5% (Santen Pharmaceutical Co., Ltd.) was instilled.
3. A bottle of an IV bag containing physiological saline was previously suspended so that a water surface was 155 cm (100 mmHg or more) higher than the eye of the rat. The IV bag was connected to a pediatric infusion set (Terumo Corporation), a 27 G injection needle thereof was inserted into and fixed to the anterior chamber while slightly dripping the liquid from a needle tip. The model was created in the light phase (6:00 to 18:00) in consideration of the diurnal variation of the intraocular pressure.
4. After the needle was inserted into the anterior chamber, pressure (100 mmHg or more) was loaded and maintained in the anterior chamber by associating the reflux system.
5. After an ischemic load for 45 minutes, the injection needle and the like were removed, the inhalation anesthetic mask was removed, and the rat was sufficiently woken up under a warming mat, and then returned to the cage.
6. For 2 days after surgery, 10 mg/kg xylazine hydrochloride was intramuscularly administered as an analgesic for the purpose of alleviating the pain after the treatment.
1. Fourteen days after model creation, general anesthesia was performed with isoflurane (5%, oxygen:nitrous oxide=1:3), euthanasia was then performed by exsanguination, a suture was placed as a marker at the 12 o'clock position of the ocular conjunctiva, and eyeball enucleation was performed.
2. […]

[1] = 300 μm from optic disk, 1 mg/mL eye drop 4 times/day for 13 days from the day after model creation (test group 3)
[2] = 300 μm from optic disk, 1 mg/mL eye drop 4 times/day for 13 days from the day after model creation (test group 3), listed as compound 9
[3] = 300 μm from optic disk, (pre) 1 mg/mL eye drop 4 times/day on the 2 days before model creation (test group 2)
[4] = 300 μm from optic disk, (pre) 1 mg/mL eye drop 4 times/day on the 2 days before model creation (test group 2), listed as compound 9
[5] = 600 μm from optic disk, 1 mg/mL eye drop 4 times/day for 13 days from the day after model creation (test group 3)
[6] = 600 μm from optic disk, 1 mg/mL eye drop 4 times/day for 13 days from the day after model creation (test group 3), listed as compound 9
[7] = 600 μm from optic disk, (pre) 1 mg/mL eye drop 4 times/day on the 2 days before model creation (test group 2)
[8] = 600 μm from optic disk, (pre) 1 mg/mL eye drop 4 times/day on the 2 days before model creation (test group 2), listed as compound 9

With `CC[C@@]1(C)Oc2cc(ccc2O)C[C@H](NC)C(=O)N[C@@H](C(C)C)C(=O)N[C@@H]1C(=O)N[C@@H](CC(=O)O)C(=O)O` [Compound 9] the “Thickness of INL (μm), Distance from Optic Disk 300 μm” value (1 mg/mL eye drop (not pre), right eye, 300 μm from optic disk, individual measurements per animal) was 27.268 μm and 29.194 μm and 27.960 μm and 26.601 μm and 24.843 μm (2×) and 25.835 μm and 20.052 μm and 21.030 μm and 18.618 μm and 25.039 μm and 27.705 μm and 29.211 μm and 23.276 μm and 30.228 μm and 28.329 μm (2×) and 29.740 μm (2×) and 27.292 μm and 28.168 μm and 41.632 μm and 38.927 μm and 48.313 μm and 31.260 μm and 35.869 μm and 37.963 μm and 31.090 μm and 28.954 μm and 30.909 μm, the “Thickness of IPL (μm), Distance from Optic Disk 300 μm” value (1 mg/mL eye drop (not pre), right eye, 300 μm from optic disk, individual measurements per animal, listed as compond 9) was 32.198 μm and 30.002 μm and 34.224 μm and 39.119 μm and 37.558 μm and 34.827 μm and 27.585 μm and 28.700 μm and 33.412 μm and 37.176 μm (3×) and 37.457 μm and 36.016 μm and 35.842 μm and 37.411 μm and 38.117 μm and 35.930 μm and 36.185 μm and 37.237 μm and 38.550 μm and 39.901 μm and 45.876 μm and 47.765 μm and 46.968 μm and 35.532 μm and 36.791 μm and 36.389 μm and 42.704 μm and 39.019 μm and the “Thickness of INL (μm), Distance from Optic Disk 300 μm, Mean” value (1 mg/mL eye drop (not pre), right eye, 300 μm from optic disk, mean per animal) was 28.141 μm and 25.760 μm and 19.900 μm and 25.862 μm and 27.572 μm and 28.454 μm and 28.746 μm and 42.957 μm and 35.031 μm and 30.318 μm. The “Thickness of IPL (μm), Distance from Optic Disk 300 μm, Mean” value (1 mg/mL eye drop (not pre), right eye, 300 μm from optic disk, mean per animal, listed as compond 9) was 32.141 μm and 37.168 μm and 29.899 μm and 36.883 μm and 36.810 μm and 36.744 μm and 38.563 μm and 46.870 μm and 36.237 μm and 39.633 μm, the “Thickness of INL (μm), Distance from Optic Disk 600 μm” value (1 mg/mL eye drop (not pre), right eye, 600 μm from optic disk, individual measurements per animal) was 24.738 μm and 26.582 μm and 31.689 μm and 28.581 μm and 25.207 μm and 26.625 μm and 29.576 μm and 28.954 μm and 37.237 μm and 34.673 μm and 26.256 μm and 29.926 μm and 35.484 μm and 34.715 μm and 36.694 μm and 38.253 μm and 32.381 μm and 33.458 μm and 33.871 μm and 36.611 μm and 27.419 μm and 34.733 μm and 25.544 μm and 26.908 μm and 37.411 μm and 29.937 μm and 35.493 μm and 34.034 μm and 32.419 μm and 29.046 μm and the “Thickness of IPL (μm), Distance from Optic Disk 600 μm” value (1 mg/mL eye drop (not pre), right eye, 600 μm from optic disk, individual measurements per animal, listed as compond 9) was 38.128 μm and 36.322 μm and 43.429 μm and 43.876 μm and 37.066 μm and 37.938 μm and 42.704 μm and 40.500 μm and 46.031 μm and 45.964 μm and 42.314 μm (2×) and 45.398 μm and 49.200 μm and 42.129 μm and 48.205 μm and 50.755 μm and 43.015 μm and 42.630 μm and 42.759 μm and 41.121 μm and 42.214 μm and 37.880 μm and 41.066 μm and 41.515 μm and 38.919 μm and 45.161 μm and 49.299 μm and 44.538 μm and 46.083 μm. For the same molecule, the “Thickness of INL (μm), Distance from Optic Disk 600 μm, Mean” value (1 mg/mL eye drop (not pre), right eye, 600 μm from optic disk, mean per animal) was 26.246 μm and 31.668 μm and 25.792 μm and 28.479 μm and 36.440 μm and 28.706 μm and 35.231 μm and 36.327 μm and 32.753 μm and 33.176 μm, the “Thickness of IPL (μm), Distance from Optic Disk 600 μm, Mean” value (1 mg/mL eye drop (not pre), right eye, 600 μm from optic disk, mean per animal, listed as compond 9) was 38.524 μm and 43.173 μm and 37.628 μm and 41.423 μm and 44.503 μm and 42.210 μm and 45.497 μm and 49.420 μm and 43.394 μm and 43.719 μm and the “Thickness of INL (μm), Distance from Optic Disk 900 μm” value (1 mg/mL eye drop (not pre), right eye, 900 μm from optic disk, individual measurements per animal) was 23.463 μm and 23.821 μm and 26.168 μm and 31.627 μm and 31.452 μm and 31.822 μm and 18.956 μm and 25.938 μm and 21.867 μm and 22.952 μm and 23.718 μm and 22.465 μm and 26.601 μm and 27.289 μm and 29.587 μm and 30.400 μm and 26.367 μm and 26.057 μm and 35.226 μm and 33.688 μm and 33.919 μm and 36.066 μm and 40.039 μm and 42.383 μm and 29.394 μm and 29.751 μm and 27.773 μm and 29.233 μm and 27.808 μm and 25.454 μm. For the same molecule, the “Thickness of IPL (μm), Distance from Optic Disk 900 μm” value (1 mg/mL eye drop (not pre), right eye, 900 μm from optic disk, individual measurements per animal, listed as compond 9) was 39.528 μm and 37.965 μm and 40.039 μm and 50.240 μm and 47.772 μm and 44.149 μm and 38.417 μm and 36.462 μm and 38.383 μm and 39.277 μm and 38.777 μm and 38.865 μm and 45.233 μm and 47.955 μm and 43.645 μm and 43.616 μm and 43.735 μm and 42.098 μm and 53.201 μm and 48.131 μm and 47.334 μm and 50.136 μm and 51.594 μm and 51.265 μm and 43.640 μm and 42.918 μm and 42.582 μm and 46.425 μm and 48.902 μm and 47.239 μm, the “Thickness of INL (μm), Distance from Optic Disk 900 μm, Mean” value (1 mg/mL eye drop (not pre), right eye, 900 μm from optic disk, mean per animal) was 24.484 μm and 31.634 μm and 22.254 μm and 23.045 μm and 27.826 μm and 27.608 μm and 34.278 μm and 39.496 μm and 28.973 μm and 27.498 μm and the “Thickness of IPL (μm), Distance from Optic Disk 900 μm, Mean” value (1 mg/mL eye drop (not pre), right eye, 900 μm from optic disk, mean per animal, listed as compond 9) was 39.177 μm and 47.387 μm and 37.754 μm and 38.973 μm and 45.611 μm and 43.150 μm and 49.555 μm and 50.998 μm and 43.047 μm and 47.522 μm. For the same molecule, the “Thickness of INL (μm)” value [1] was 29.27±1.94 μm, the “Thickness of IPL (μm)” value [1] was 37.09±1.42 μm and the “Thickness of ONL (μm)” value [1] was 42.79±2.60 μm. The “Thickness of INL (μm)” value [2] was 29.27 ± 1.94 μm, the “Thickness of ONL (μm)” value [2] was 42.79 ± 2.60 μm and the “Thickness of INL (μm)” value [3] was 28.93±1.27 μm. For the same molecule, the “Thickness of IPL (μm)” value [3] was 31.31±0.93 μm, the “Thickness of ONL (μm)” value [3] was 40.06±1.61 μm and the “Thickness of INL (μm)” value [4] was 28.93 ± 1.27 μm. The “Thickness of ONL (μm)” value [4] was 40.06 ± 1.61 μm, the “Thickness of INL (μm)” value [5] was 31.48±1.26 μm and the “Thickness of IPL (μm)” value [5] was 42.95±1.07 μm. The “Thickness of ONL (μm)” value [5] was 42.33±1.81 μm, the “Thickness of INL (μm)” value [6] was 31.48 ± 1.26 μm and the “Thickness of ONL (μm)” value [6] was 42.33 ± 1.81 μm. The “Thickness of INL (μm)” value [7] was 31.25±1.29 μm, the “Thickness of IPL (μm)” value [7] was 38.85±1.23 μm and the “Thickness of ONL (μm)” value [7] was 43.03±0.82 μm. For the same molecule, the “Thickness of INL (μm)” value [8] was 31.25 ± 1.29 μm and the “Thickness of ONL (μm)” value [8] was 43.03 ± 0.82 μm.
